Results published in patent publication US9200008B2 (ASKA PHARMACEUTICAL CO., LTD., priority 2010, dated 2015).
Where two headings read alike, the source gives them in different places.

Experiments:
Type in all cases: cell-based
[1] = system: Human prostate cancer cell lines (PC-3 cells); test: Calculation of IC50 value, cell proliferation inhibitory activity by XTT assay, PC-3 cells (Test Example 2); conditions: 72 hours culture with test substance, read-out: Cell proliferation inhibitory activity (IC50 value calculated from XTT assay), concentration showing 50% inhibitory activity, human prostate cancer cell lines (PC-3)
Method: (§1) Human prostate cancer cell lines (PC-3 cells) and human fibrosarcoma cell lines (HT1080 cells) were seeded to 96-well microplates so as to provide a density of 1,300 cells/well and that of 3,100 cells/well, respectively. In the presence of 5% CO2 at 37° C., the PC-3 cells and the HT1080 cells were cultured for 48 hours and 24 hours, respectively. Thereafter, each one of test substances was added to each well. As a control of a medical agent, DMSO was added. After the addition, both cells were continuously cultured for 72 hours. Then, an XTT labeling reagent containing 1 mg/mL of sodium 3′-[1-(phenylaminocarbonyl)-3,4-tetrazolium]-bis(4-methoxy-6-nitro)benzenesulfonate hydrate (XTT) and an electronic coupling reagent containing 1.25 mM N-methyl dibenzopyrazine methyl sulfate (PMS) were mixed at a ratio of 50:1 to give an XTT labeling mixture. The XTT labeling mixture was added to each well in an amount of 50 μL per well, and the cells were cultured for another 4 hours. A culture solution containing a test substance was used as a blank, and the absorbencies of a culture solution containing the XTT labeling mixture at a measurement wavelength (450 nm) and a control wavelength (650 nm) were measured by a plate reader. The difference between these absorbencies was evaluated as an activity of dehydrogenase of mitochondria derived from living cells. With respect to the following model formula of sigmoid curve, the convergent solution of each variable (gain, range, base and α) that minimize the residual sum of squares of the difference between these absorbencies and regressive prediction was determined, and then IC50 (=e^α) of each test substance was calculated.
The IC50 values of the compounds represented by the formula (1) or the salts thereof on two cancer cell lines according to the method of Test Example 2 were calculated, and the results are shown in Table A.

[2] = system: Human prostate cancer cell lines (PC-3 cells); test: Measurement of cell death-inducing activity (Test Example 1); conditions: PC-3, 48 h, 48 hours after addition, tested at 10, 1, 0.1, 0.025 and 0.00625 μmol/L, qualitative evaluation of 10 fields, read-out: Concentration showing the cell death-inducing activity (cell death-inducing rate not less than 40%)
Method in brief: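 Compound treatment lasted 48 h at 10 to 0.00625 μmol/L (five levels, DMSO as control) on PC-3 cells pre-cultured 48 h at 37 °C, 5% CO2 after seeding at 1×10^5 cells/well. A cell death-inducing rate of 40% or more counted as active.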

[3] = system: human fibrosarcoma cell lines (HT1080 cells); test: Calculation of IC50 value, cell proliferation inhibitory activity by XTT assay, HT1080 cells (Test Example 2)
Method: as §1, with “Then, an XTT labeling reagent containing 1 mg/mL of sodium 3′-[1-(phenylaminocarbonyl)-3,4-tetrazolium]-bis(4-methoxy-6-nitro)benzenesulfonate hydrate (XTT) and an electronic coupling reagent containing 1.25 mM N-methyl dibenzopyrazine methyl sulfate (PMS) were mixed at a ratio of 50:1 to give an XTT labeling mixture.” left out

[4] = HT1080 cells, 72 hours culture with test substance, XTT assay, read-out: Cell proliferation inhibitory activity (IC50 value calculated from XTT assay), concentration showing 50% inhibitory activity, human fibrosarcoma cell lines (HT1080)

IC50 [1] [nM] | IC50 [3, 4] [nM] | IC50 ([3]; 72 h) [nM] | Structure (SMILES) | minimal effective concentration [2] [µM]
6.7 | 15.1 |  | COc1cc(Cl)ccc1-c1nc(C)c(NC(=O)OCc2ccc3c(c2)nc2n3CCCC2)s1 [Example 9-1, [2-(4-Chloro-2-methoxyphenyl)-4-methylthiazol-5-yl]carbamic acid 1,2,3,4-tetrahydrobenzo[4,5]imidazo[1,2-a]pyridin-7-ylmethyl ester] | 0.025
0.56 |  | 1.75 | COc1cc(C)ccc1-c1nc(C)c(NC(=O)OCc2ccc3c(c2)nc2n3CCOC2)s1 [Example 9-94] | 0.00625
1.64 | 4.19 |  | COc1cc(C)ccc1-c1cc(COC(=O)Nc2ccc3c(c2)nc2n3CCOC2)n(C)n1 [Example 13-101] | 0.00625
